Data: PubChem BioAssay AID192 (DTP/NCI, 2004)
Where “and” joins values, the source holds several entries; their conditions need not be identical. Equal values may be shown once. Toxic doses and inconclusive results are not listed.

System: BDF1 mice, B16 melanoma ip, median survival T/C
Assay: NCI In Vivo Anticancer Drug Screen. Data for tumor model B16 Melanoma (intraperitoneal) in B6D2F1 (BDF1) mice
Details: endpoint: median survival time, higher = longer survival
Method in brief: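 Survival or tumor size is measured after treatment of tumor-bearing mice and normalised to the vehicle-treated control group.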

[1] = dose: 4.0 mg/kg/injection, schedule: Q01DX009 (ip), vehicle: saline
[2] = dose: 25.0 mg/kg/injection, schedule: Q01DX009 (ip), vehicle: Klucel (hydroxypropylcellulose) (HPC)
[3] = dose: 50.0 mg/kg/injection, schedule: Q01DX009 (ip), vehicle: Klucel (hydroxypropylcellulose) (HPC)
[4] = dose: 100.0 mg/kg/injection, schedule: Q01DX009 (ip), vehicle: Klucel (hydroxypropylcellulose) (HPC)
[5] = dose: 200.0 mg/kg/injection, schedule: Q01DX009 (ip), vehicle: Klucel (hydroxypropylcellulose) (HPC)
[6] = dose: 12.5 mg/kg/injection, schedule: Q01DX009 (ip), vehicle: Klucel (hydroxypropylcellulose) (HPC)
[7] = dose: 20.0 mg/kg/injection, schedule: Q01DX009 (ip), vehicle: Klucel (hydroxypropylcellulose) (HPC)
[8] = dose: 25.0 mg/kg/injection, schedule: Q01DX009 (ip), vehicle: saline with Tween-80
[9] = dose: 50.0 mg/kg/injection, schedule: Q01DX009 (ip), vehicle: saline with Tween-80
[10] = dose: 100.0 mg/kg/injection, schedule: Q01DX009 (ip), vehicle: saline with Tween-80
[11] = dose: 3.12 mg/kg/injection, schedule: Q01DX009 (ip), vehicle: Klucel (hydroxypropylcellulose) (HPC)
[12] = dose: 6.25 mg/kg/injection, schedule: Q01DX009 (ip), vehicle: Klucel (hydroxypropylcellulose) (HPC)
[13] = dose: 12.5 mg/kg/injection, schedule: Q01DX009 (ip), vehicle: saline with Tween-80

## COC(=O)/C(C)=C/C=C/C(OC)C(OC(N)=O)/C(C)=C/C(C)C(O)C(CC(C)CC1=C(N)C(=O)C=C(N)C1=O)OC (configuration not stated)
dose: 12.5 mg/kg/injection, schedule: Q01DX005 (ip), vehicle: other
  T/C: 94 % of control
dose: 25.0 mg/kg/injection, schedule: Q01DX005 (ip), vehicle: other
  T/C: 95 % of control
dose: 50.0 mg/kg/injection, schedule: Q01DX005 (ip), vehicle: other
  T/C: 108 % of control
dose: 100.0 mg/kg/injection, schedule: Q01DX005 (ip), vehicle: other
  T/C: 93 % of control

## O=[n+]1ccn2cc3ccccc3cc2c1
dose: 3.75 mg/kg/injection, schedule: Q01DX009 (ip), vehicle: saline
  T/C: 102 % of control
dose: 7.5 mg/kg/injection, schedule: Q01DX009 (ip), vehicle: saline
  T/C: 105 % of control

## O=C1C(NCC(O)CO)=C(N2CC2)C(=O)C(NCC(O)CO)=C1N1CC1 (configuration not stated)
dose: 1.0 mg/kg/injection, schedule: Q01DX009 (ip), vehicle: saline
  T/C: 95 % of control
dose: 2.0 mg/kg/injection, schedule: Q01DX009 (ip), vehicle: saline
  T/C: 121 % of control
[1]
  T/C: 123 % of control

## N/C(=N\N=C\c1ccc(-c2ccccc2)cc1)N[N+](=O)[O-]
[2]
  T/C: 93 % of control
[3]
  T/C: 90 % of control
[4]
  T/C: 93 % of control
[5]
  T/C: 86 % of control

## CCCC(OC(C)=O)C(Cl)(Cl)Cl (configuration not stated)
[2]
  T/C: 90 % of control
[3]
  T/C: 100 % of control

## Cc1ccc(S(=O)(=O)N/N=C/C(Br)=C(/Br)C(=O)O)cc1
[6]
  T/C: 111 % of control
[2]
  T/C: 113 % of control
[3]
  T/C: 122 % of control

## CCOC(=O)CNC(=O)CCCCSc1ncnc2nc[nH]c12
[7]
  T/C: 88 % of control
dose: 40.0 mg/kg/injection, schedule: Q01DX009 (ip), vehicle: Klucel (hydroxypropylcellulose) (HPC)
  T/C: 91 % of control
dose: 80.0 mg/kg/injection, schedule: Q01DX009 (ip), vehicle: Klucel (hydroxypropylcellulose) (HPC)
  T/C: 89 % of control
dose: 160.0 mg/kg/injection, schedule: Q01DX009 (ip), vehicle: Klucel (hydroxypropylcellulose) (HPC)
  T/C: 89 % of control
dose: 320.0 mg/kg/injection, schedule: Q01DX009 (ip), vehicle: Klucel (hydroxypropylcellulose) (HPC)
  T/C: 87 % of control

## c1ccc2c(NCCCCCCCCNc3c4ccccc4nc4ccccc34)c3ccccc3nc2c1
dose: 5.0 mg/kg/injection, schedule: Q01DX009 (ip), vehicle: Klucel (hydroxypropylcellulose) (HPC)
  T/C: 151 % of control and 159 % of control
dose: 10.0 mg/kg/injection, schedule: Q01DX009 (ip), vehicle: Klucel (hydroxypropylcellulose) (HPC)
  T/C: 164 % of control
[7]
  T/C: 156 % of control

## O=c1[nH]c2c(ccc3cnccc32)c2c1CCC2
dose: 3.12 mg/kg/injection, schedule: Q01DX009 (ip), vehicle: suspension in saline
  T/C: 97 % of control
dose: 6.25 mg/kg/injection, schedule: Q01DX009 (ip), vehicle: suspension in saline
  T/C: 104 % of control

## CC1=CC(=O)c2ccccc2C1=O
[8]
  T/C: 108 % of control and 118 % of control

## Cc1ccc2no[n+]([O-])c2c1[N+](=O)[O-]
[8]
  T/C: 93 % of control
[9]
  T/C: 97 % of control
[10]
  T/C: 98 % of control

## C[N+](C)(C)c1cc2c(nn1)Nc1ccccc1S2
[11]
  T/C: 101 % of control
[12]
  T/C: 98 % of control
[6]
  T/C: 101 % of control
[2]
  T/C: 101 % of control
[3]
  T/C: 102 % of control
[4]
  T/C: 89 % of control

## CC1OC(Oc2c(-c3cc(O)c(O)c(O)c3)oc3cc(O)cc(O)c3c2=O)C(O)C(O)C1O (configuration not stated)
[10]
  T/C: 112 % of control
dose: 200.0 mg/kg/injection, schedule: Q01DX009 (ip), vehicle: saline with Tween-80
  T/C: 113 % of control
dose: 400.0 mg/kg/injection, schedule: Q01DX009 (ip), vehicle: saline with Tween-80
  T/C: 90 % of control

## CCCCCC(O)C1C(=O)OC(C)C(O)/C=C/C=C/C=C/C=C\C=C(\C)C(O)CC(O)CC(O)CC(O)CC(O)CC(O)CC1O (configuration not stated)
dose: 2.5 mg/kg/injection, schedule: Q01DX009 (ip), vehicle: saline
  T/C: 120 % of control
dose: 5.0 mg/kg/injection, schedule: Q01DX009 (ip), vehicle: saline
  T/C: 97 % of control
dose: 10.0 mg/kg/injection, schedule: Q01DX009 (ip), vehicle: saline
  T/C: 88 % of control

## CC(NC(=O)c1ccccc1)C(=O)NC(CSC(c1ccccc1)c1ccccc1)C(=O)O (configuration not stated)
dose: 12.5 mg/kg/injection, schedule: Q04DX003 (ip), vehicle: saline
  T/C: 107 % of control
dose: 25.0 mg/kg/injection, schedule: Q04DX003 (ip), vehicle: saline
  T/C: 110 % of control
dose: 50.0 mg/kg/injection, schedule: Q04DX003 (ip), vehicle: saline
  T/C: 89 % of control

## CN(C)N=Nc1c(Cl)cccc1Cl
dose: 18.75 mg/kg/injection, schedule: Q01DX009 (ip), vehicle: Klucel (hydroxypropylcellulose) (HPC)
  T/C: 101 % of control
dose: 37.5 mg/kg/injection, schedule: Q01DX009 (ip), vehicle: Klucel (hydroxypropylcellulose) (HPC)
  T/C: 105 % of control

## C[n+]1ccc(Nc2ccc(NC(=O)c3ccc(Nc4cc[n+](C)c5ccc([N+](=O)[O-])cc45)cc3)cc2)cc1
[1]
  T/C: 107 % of control
dose: 8.0 mg/kg/injection, schedule: Q01DX009 (ip), vehicle: saline
  T/C: 102 % of control
dose: 16.0 mg/kg/injection, schedule: Q01DX009 (ip), vehicle: saline
  T/C: 107 % of control
dose: 32.0 mg/kg/injection, schedule: Q01DX009 (ip), vehicle: saline
  T/C: 103 % of control

## C[As](C)Sc1ccnc(S[As](C)C)n1
[3]
  T/C: 100 % of control
[4]
  T/C: 119 % of control

## CC1=CC(=O)C=CC1=Nc1ccc(N(C)C)cc1
[8]
  T/C: 91 % of control
[9]
  T/C: 90 % of control

## CCCCCCCCCCCCNC(=O)Nc1ccc(C)cc1C
[4]
  T/C: 92 % of control
[5]
  T/C: 96 % of control

## O=S(CCCl)CCCl
dose: 1.56 mg/kg/injection, schedule: Q01DX009 (ip), vehicle: Klucel (hydroxypropylcellulose) (HPC)
  T/C: 95 % of control and 107 % of control
[11]
  T/C: 94 % of control and 103 % of control
[12]
  T/C: 111 % of control
[6]
  T/C: 99 % of control
[2]
  T/C: 89 % of control
[3]
  T/C: 91 % of control

## C/C(=N/N=C(N)N)c1ccc(NC(=O)Nc2ccc(/C(C)=N/N=C(N)N)cc2)cc1
[2]
  T/C: 99 % of control
[3]
  T/C: 121 % of control
[5]
  T/C: 120 % of control

## COc1cc2c(c(OC)c1OC)C(=O)/C(=C\c1ccccc1)O2
dose: 6.25 mg/kg/injection, schedule: Q01DX009 (ip), vehicle: saline with Tween-80
  T/C: 101 % of control
[13]
  T/C: 106 % of control
[8]
  T/C: 103 % of control
[9]
  T/C: 86 % of control

## N#CCC(=O)O
dose: 18.75 mg/kg/injection, schedule: Q01DX009 (ip), vehicle: saline
  T/C: 109 % of control
dose: 37.5 mg/kg/injection, schedule: Q01DX009 (ip), vehicle: saline
  T/C: 97 % of control

## CC(N)CN(C)C (configuration not stated)
dose: 50.0 mg/kg/injection, schedule: Q01DX009 (ip), vehicle: saline
  T/C: 101 % of control
dose: 100.0 mg/kg/injection, schedule: Q01DX009 (ip), vehicle: saline
  T/C: 102 % of control
dose: 200.0 mg/kg/injection, schedule: Q01DX009 (ip), vehicle: saline
  T/C: 93 % of control

## CC1=C2C(=O)c3ccccc3C2=C(C)S(=O)(=O)O1
dose: 50.0 mg/kg/injection, schedule: Q01DX009 (ip), vehicle: carboxymethylcellulose (CMC)
  T/C: 99 % of control
dose: 100.0 mg/kg/injection, schedule: Q01DX009 (ip), vehicle: carboxymethylcellulose (CMC)
  T/C: 87 % of control

## Nc1ncnc2c1c(C(=O)O)cn2C1OC(CO)C(O)C1O (configuration not stated)
[13]
  T/C: 91 % of control
[8]
  T/C: 93 % of control
[9]
  T/C: 96 % of control
